#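 96-well plates; 48 h exposure; 5 concentrations. Endpoints by linear interpolation between flanking doses. Not reached: highest tested concentration assigned. TGI denotes the concentration required for complete inhibition of growth.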 Where a SMILES comes first, the peptide text is derived from it. The star is where a group is joined. Boc = CC(C)(C)OC(=O)*; Bn = c1ccc(C*)cc1
# Tested on: HOP-62 NSCLC
# Assay: DTP human tumour cell line panel, 48 h
row,SMILES,TGI [µM]
1,CC(=O)c1ccccc1NP(=O)(c1ccccc1)c1ccccc1,> 100

# Tested on: IGROV1 ovarian
# Assay: DTP human tumour cell line panel, 48 h
row,SMILES,TGI [µM]
1,CCN(CC)Cc1ccc(C(=S)Nc2ccc(Cl)cc2)s1,24.1
2,COC(=O)C(CC(C)C)NC(=O)C(C)NC(=O)C(Cc1ccc(OCc2ccccc2)cc1)NC(=O)C(COCc1ccccc1)NC(=O)OC(C)(C)C (stereo not given) (Boc-S(Bn)Y(Bn)AL-OMe; configuration not given here),> 100
3,CCn1c(-c2ccccc2)cs/c1=N\C(P(=O)(O)O)P(=O)(O)O,> 100
4,Cc1ccc(-n2cnc(C(=N)C#N)c2N)cc1,> 100
5,COC(=O)/C=C(\C(=O)OC)C1C(=O)Oc2c(C)c(=O)c3ccccc3n21 (stereo not given),> 100
6,O=C(O)c1nnsc1-c1ccc(-c2snnc2C(=O)O)cc1,> 100
7,CC(=O)c1ccccc1NP(=O)(c1ccccc1)c1ccccc1,> 100

# Tested on: CAKI-1 renal
# Assay: DTP human tumour cell line panel, 48 h
row,SMILES,TGI [µM]
1,CCN(CC)Cc1ccc(C(=S)Nc2ccc(Cl)cc2)s1,26.2
2,COC(=O)C(CC(C)C)NC(=O)C(C)NC(=O)C(Cc1ccc(OCc2ccccc2)cc1)NC(=O)C(COCc1ccccc1)NC(=O)OC(C)(C)C (stereo not given) (Boc-S(Bn)Y(Bn)AL-OMe; configuration not given here),> 100
3,CCn1c(-c2ccccc2)cs/c1=N\C(P(=O)(O)O)P(=O)(O)O,> 100
4,Cc1ccc(-n2cnc(C(=N)C#N)c2N)cc1,> 100
5,COC(=O)/C=C(\C(=O)OC)C1C(=O)Oc2c(C)c(=O)c3ccccc3n21 (stereo not given),> 100
6,O=C(O)c1nnsc1-c1ccc(-c2snnc2C(=O)O)cc1,> 100
7,CC(=O)c1ccccc1NP(=O)(c1ccccc1)c1ccccc1,> 100

# Tested on: SF-268 CNS
# Assay: DTP human tumour cell line panel, 48 h
row,SMILES,TGI [µM]
1,CCN(CC)Cc1ccc(C(=S)Nc2ccc(Cl)cc2)s1,30
2,COC(=O)C(CC(C)C)NC(=O)C(C)NC(=O)C(Cc1ccc(OCc2ccccc2)cc1)NC(=O)C(COCc1ccccc1)NC(=O)OC(C)(C)C (stereo not given) (Boc-S(Bn)Y(Bn)AL-OMe; configuration not given here),> 100
3,CCn1c(-c2ccccc2)cs/c1=N\C(P(=O)(O)O)P(=O)(O)O,> 100
4,Cc1ccc(-n2cnc(C(=N)C#N)c2N)cc1,> 100
5,COC(=O)/C=C(\C(=O)OC)C1C(=O)Oc2c(C)c(=O)c3ccccc3n21 (stereo not given),> 100
6,O=C(O)c1nnsc1-c1ccc(-c2snnc2C(=O)O)cc1,> 100
7,CC(=O)c1ccccc1NP(=O)(c1ccccc1)c1ccccc1,> 100

# Tested on: HCC-2998 colon
# Assay: DTP human tumour cell line panel, 48 h
row,SMILES,TGI [µM]
1,CCN(CC)Cc1ccc(C(=S)Nc2ccc(Cl)cc2)s1,26
2,CCn1c(-c2ccccc2)cs/c1=N\C(P(=O)(O)O)P(=O)(O)O,> 100
3,Cc1ccc(-n2cnc(C(=N)C#N)c2N)cc1,> 100
4,CC(=O)c1ccccc1NP(=O)(c1ccccc1)c1ccccc1,> 100

# Tested on: ACHN renal
# Assay: DTP human tumour cell line panel, 48 h
row,SMILES,TGI [µM]
1,CCN(CC)Cc1ccc(C(=S)Nc2ccc(Cl)cc2)s1,28.3
2,COC(=O)C(CC(C)C)NC(=O)C(C)NC(=O)C(Cc1ccc(OCc2ccccc2)cc1)NC(=O)C(COCc1ccccc1)NC(=O)OC(C)(C)C (stereo not given) (Boc-S(Bn)Y(Bn)AL-OMe; configuration not given here),> 100
3,CCn1c(-c2ccccc2)cs/c1=N\C(P(=O)(O)O)P(=O)(O)O,> 100
4,Cc1ccc(-n2cnc(C(=N)C#N)c2N)cc1,> 100
5,O=C(O)c1nnsc1-c1ccc(-c2snnc2C(=O)O)cc1,> 100
6,CC(=O)c1ccccc1NP(=O)(c1ccccc1)c1ccccc1,> 100

# Tested on: OVCAR-3 ovarian
# Assay: DTP human tumour cell line panel, 48 h
row,SMILES,TGI [µM]
1,CCN(CC)Cc1ccc(C(=S)Nc2ccc(Cl)cc2)s1,37.7
2,COC(=O)C(CC(C)C)NC(=O)C(C)NC(=O)C(Cc1ccc(OCc2ccccc2)cc1)NC(=O)C(COCc1ccccc1)NC(=O)OC(C)(C)C (stereo not given) (Boc-S(Bn)Y(Bn)AL-OMe; configuration not given here),> 100
3,CCn1c(-c2ccccc2)cs/c1=N\C(P(=O)(O)O)P(=O)(O)O,> 100
4,Cc1ccc(-n2cnc(C(=N)C#N)c2N)cc1,> 100
5,COC(=O)/C=C(\C(=O)OC)C1C(=O)Oc2c(C)c(=O)c3ccccc3n21 (stereo not given),> 100
6,O=C(O)c1nnsc1-c1ccc(-c2snnc2C(=O)O)cc1,> 100
7,CC(=O)c1ccccc1NP(=O)(c1ccccc1)c1ccccc1,> 100

# Tested on: RXF 393 renal
# Assay: DTP human tumour cell line panel, 48 h
row,SMILES,TGI [µM]
1,COC(=O)C(CC(C)C)NC(=O)C(C)NC(=O)C(Cc1ccc(OCc2ccccc2)cc1)NC(=O)C(COCc1ccccc1)NC(=O)OC(C)(C)C (stereo not given) (Boc-S(Bn)Y(Bn)AL-OMe; configuration not given here),> 100
2,CCn1c(-c2ccccc2)cs/c1=N\C(P(=O)(O)O)P(=O)(O)O,> 100
3,COC(=O)/C=C(\C(=O)OC)C1C(=O)Oc2c(C)c(=O)c3ccccc3n21 (stereo not given),> 100
4,O=C(O)c1nnsc1-c1ccc(-c2snnc2C(=O)O)cc1,> 100
5,CC(=O)c1ccccc1NP(=O)(c1ccccc1)c1ccccc1,> 100

# Tested on: RPMI-8226 leukemia
# Assay: DTP human tumour cell line panel, 48 h
row,SMILES,TGI [µM]
1,CCN(CC)Cc1ccc(C(=S)Nc2ccc(Cl)cc2)s1,39.6
2,COC(=O)C(CC(C)C)NC(=O)C(C)NC(=O)C(Cc1ccc(OCc2ccccc2)cc1)NC(=O)C(COCc1ccccc1)NC(=O)OC(C)(C)C (stereo not given) (Boc-S(Bn)Y(Bn)AL-OMe; configuration not given here),> 100
3,CCn1c(-c2ccccc2)cs/c1=N\C(P(=O)(O)O)P(=O)(O)O,> 100
4,Cc1ccc(-n2cnc(C(=N)C#N)c2N)cc1,> 100
5,COC(=O)/C=C(\C(=O)OC)C1C(=O)Oc2c(C)c(=O)c3ccccc3n21 (stereo not given),> 100
6,O=C(O)c1nnsc1-c1ccc(-c2snnc2C(=O)O)cc1,68.6
7,CC(=O)c1ccccc1NP(=O)(c1ccccc1)c1ccccc1,62.8

# Tested on: MALME-3M melanoma
# Assay: DTP human tumour cell line panel, 48 h
row,SMILES,TGI [µM]
1,COC(=O)C(CC(C)C)NC(=O)C(C)NC(=O)C(Cc1ccc(OCc2ccccc2)cc1)NC(=O)C(COCc1ccccc1)NC(=O)OC(C)(C)C (stereo not given) (Boc-S(Bn)Y(Bn)AL-OMe; configuration not given here),> 100
2,CCn1c(-c2ccccc2)cs/c1=N\C(P(=O)(O)O)P(=O)(O)O,> 100
3,Cc1ccc(-n2cnc(C(=N)C#N)c2N)cc1,> 100
4,COC(=O)/C=C(\C(=O)OC)C1C(=O)Oc2c(C)c(=O)c3ccccc3n21 (stereo not given),> 100
5,O=C(O)c1nnsc1-c1ccc(-c2snnc2C(=O)O)cc1,> 100
6,CC(=O)c1ccccc1NP(=O)(c1ccccc1)c1ccccc1,> 100

# Tested on: CCRF-CEM leukemia
# Assay: DTP human tumour cell line panel, 48 h
row,SMILES,TGI [µM]
1,CCN(CC)Cc1ccc(C(=S)Nc2ccc(Cl)cc2)s1,34.1
2,CCn1c(-c2ccccc2)cs/c1=N\C(P(=O)(O)O)P(=O)(O)O,> 100
3,Cc1ccc(-n2cnc(C(=N)C#N)c2N)cc1,> 100
4,COC(=O)/C=C(\C(=O)OC)C1C(=O)Oc2c(C)c(=O)c3ccccc3n21 (stereo not given),> 100
5,O=C(O)c1nnsc1-c1ccc(-c2snnc2C(=O)O)cc1,9.63
6,CC(=O)c1ccccc1NP(=O)(c1ccccc1)c1ccccc1,> 100

# Tested on: SN12C renal
# Assay: DTP human tumour cell line panel, 48 h
row,SMILES,TGI [µM]
1,COC(=O)C(CC(C)C)NC(=O)C(C)NC(=O)C(Cc1ccc(OCc2ccccc2)cc1)NC(=O)C(COCc1ccccc1)NC(=O)OC(C)(C)C (stereo not given) (Boc-S(Bn)Y(Bn)AL-OMe; configuration not given here),> 100
2,Cc1ccc(-n2cnc(C(=N)C#N)c2N)cc1,> 100
3,COC(=O)/C=C(\C(=O)OC)C1C(=O)Oc2c(C)c(=O)c3ccccc3n21 (stereo not given),> 100
4,O=C(O)c1nnsc1-c1ccc(-c2snnc2C(=O)O)cc1,> 100
5,CC(=O)c1ccccc1NP(=O)(c1ccccc1)c1ccccc1,> 100

# Tested on: SW-620 colon
# Assay: DTP human tumour cell line panel, 48 h
row,SMILES,TGI [µM]
1,CCN(CC)Cc1ccc(C(=S)Nc2ccc(Cl)cc2)s1,36.8
2,COC(=O)C(CC(C)C)NC(=O)C(C)NC(=O)C(Cc1ccc(OCc2ccccc2)cc1)NC(=O)C(COCc1ccccc1)NC(=O)OC(C)(C)C (stereo not given) (Boc-S(Bn)Y(Bn)AL-OMe; configuration not given here),> 100
3,CCn1c(-c2ccccc2)cs/c1=N\C(P(=O)(O)O)P(=O)(O)O,> 100
4,Cc1ccc(-n2cnc(C(=N)C#N)c2N)cc1,> 100
5,COC(=O)/C=C(\C(=O)OC)C1C(=O)Oc2c(C)c(=O)c3ccccc3n21 (stereo not given),> 100
6,O=C(O)c1nnsc1-c1ccc(-c2snnc2C(=O)O)cc1,> 100
7,CC(=O)c1ccccc1NP(=O)(c1ccccc1)c1ccccc1,> 100

# Tested on: TK-10 renal
# Assay: DTP human tumour cell line panel, 48 h
row,SMILES,TGI [µM]
1,COC(=O)C(CC(C)C)NC(=O)C(C)NC(=O)C(Cc1ccc(OCc2ccccc2)cc1)NC(=O)C(COCc1ccccc1)NC(=O)OC(C)(C)C (stereo not given) (Boc-S(Bn)Y(Bn)AL-OMe; configuration not given here),> 100
2,CCn1c(-c2ccccc2)cs/c1=N\C(P(=O)(O)O)P(=O)(O)O,> 100
3,Cc1ccc(-n2cnc(C(=N)C#N)c2N)cc1,> 100
4,COC(=O)/C=C(\C(=O)OC)C1C(=O)Oc2c(C)c(=O)c3ccccc3n21 (stereo not given),> 100
5,O=C(O)c1nnsc1-c1ccc(-c2snnc2C(=O)O)cc1,> 100
6,CC(=O)c1ccccc1NP(=O)(c1ccccc1)c1ccccc1,> 100

# Tested on: K-562 leukemia
# Assay: DTP human tumour cell line panel, 48 h
row,SMILES,TGI [µM]
1,CCN(CC)Cc1ccc(C(=S)Nc2ccc(Cl)cc2)s1,18.9
2,COC(=O)C(CC(C)C)NC(=O)C(C)NC(=O)C(Cc1ccc(OCc2ccccc2)cc1)NC(=O)C(COCc1ccccc1)NC(=O)OC(C)(C)C (stereo not given) (Boc-S(Bn)Y(Bn)AL-OMe; configuration not given here),> 100
3,CCn1c(-c2ccccc2)cs/c1=N\C(P(=O)(O)O)P(=O)(O)O,> 100
4,Cc1ccc(-n2cnc(C(=N)C#N)c2N)cc1,> 100
5,COC(=O)/C=C(\C(=O)OC)C1C(=O)Oc2c(C)c(=O)c3ccccc3n21 (stereo not given),> 100
6,O=C(O)c1nnsc1-c1ccc(-c2snnc2C(=O)O)cc1,98.3
7,CC(=O)c1ccccc1NP(=O)(c1ccccc1)c1ccccc1,> 100

# Tested on: DU-145 prostate
# Assay: DTP human tumour cell line panel, 48 h
row,SMILES,TGI [µM]
1,CCN(CC)Cc1ccc(C(=S)Nc2ccc(Cl)cc2)s1,29.7
2,COC(=O)C(CC(C)C)NC(=O)C(C)NC(=O)C(Cc1ccc(OCc2ccccc2)cc1)NC(=O)C(COCc1ccccc1)NC(=O)OC(C)(C)C (stereo not given) (Boc-S(Bn)Y(Bn)AL-OMe; configuration not given here),> 100
3,CCn1c(-c2ccccc2)cs/c1=N\C(P(=O)(O)O)P(=O)(O)O,> 100
4,Cc1ccc(-n2cnc(C(=N)C#N)c2N)cc1,> 100
5,COC(=O)/C=C(\C(=O)OC)C1C(=O)Oc2c(C)c(=O)c3ccccc3n21 (stereo not given),> 100
6,O=C(O)c1nnsc1-c1ccc(-c2snnc2C(=O)O)cc1,> 100
7,CC(=O)c1ccccc1NP(=O)(c1ccccc1)c1ccccc1,> 100
